Assay results as given in patent publication US20240390408A1, “METHOD OF TREATING HEPATITIS C VIRUS IN PATIENTS” (Altesa BioSciences, Inc., priority 2023, published 2024).
Read-outs that look alike come from different tables or passages of the source. Values belong to the compound of their own block, whether it stands above or below them.

Experiment: Tissue concentrations of Formula I and its metabolites in Göttingen pigs after a single oral or intravenous dose (LC-MS/MS)
Format: in vivo
Settings: for Exposure in the lung and spleen, fold lower than liver and kidneys: after PO dosing with Formula I; for concentration at 2 h / concentration at 3 h / concentration at 12 h / concentration at 24 h: both sexes, Göttingen, pig (minipig)
Method: Tissue samples were collected at 3, 12, and 24 hours post-dose (hpd) for the oral dose and 2 and 12 hpd for the intravenous dose, snap-frozen in liquid nitrogen, and stored at −60 to −90° C. until shipment on dry ice for analysis by LC-MS/MS.
Animals were weighed the day prior to dosing to determine the dosing volume.
The compound of Formula I was dissolved in a PEG 400/DI water (60%/40% v/v) vehicle for oral dosing. For IV dosing the compound of Formula I was dissolved in a PEG 400/Cremophor RH 40/Saline (40%/10%/50% v/v) vehicle and passed through a sterile filter. […] Animals were euthanized by euthanasia solution administration under sedation, if necessary (e.g., acepromazine and or/Telazol®), followed by a Testing Facility SOP approved method to ensure death (e.g., exsanguination). Tissues were collected from two animals per sex per timepoint. Tissue samples, including the brain, heart, kidney, liver, lung, spleen, pancreas, bone marrow, duodenum, jejunum, and colon, were collected in duplicate (approximately 50±20 mg each) and placed into two separate reinforced homogenization tubes per organ (one tissue sample per tube). The exact weight (in milligrams) of each sample was recorded. Tissues samples were flash frozen in liquid nitrogen and stored at −60 to −90° C. until shipment on dry ice for analysis by LC-MS/MS.
Mobile phase A consisted of 50 mM ammonium bicarbonate buffer in HPLC grade water pH 9.8 and mobile phase B consisted of pure acetonitrile. […] Mass spectrometry analysis was performed on a QTrap 7500 Mass Spectrometer (Sciex, Framingham, MA, USA) using negative mode electrospray ionization (ESI) in multiple reaction monitoring (MRM) mode. Data analysis was performed using SCIEX OS Software (Sciex, Framingham, MA, USA).
Tissue samples were collected at 3, 12, and 24 hours post-dose for the oral dose and 2 and 12 hour post-dose for the intravenous dose.

[1] = kidney, single intravenous bolus of Formula I 25 mg/kg, 12 hpd, read-out: Tissue concentration, kidney
[2] = kidney, single oral dose of Formula I 125 mg/kg, 3 hpd, read-out: Tissue concentration, kidney
[3] = kidney, single oral dose of Formula I 125 mg/kg, 12 hpd, read-out: Tissue concentration, kidney
[4] = kidney, single oral dose of Formula I 125 mg/kg, 24 hpd, read-out: Tissue concentration, kidney
[5] = liver, single intravenous bolus of Formula I 25 mg/kg, 2 hpd, read-out: Tissue concentration, liver
[6] = liver, single intravenous bolus of Formula I 25 mg/kg, 12 hpd, read-out: Tissue concentration, liver
[7] = liver, single oral dose of Formula I 125 mg/kg, 12 hpd, read-out: Tissue concentration in Göttingen pig liver (Table 7)
[8] = liver, single oral dose of Formula I 125 mg/kg, 12 hpd, read-out: Tissue concentration, liver
[9] = liver, single oral dose of Formula I 125 mg/kg, 24 hpd, read-out: Tissue concentration in Göttingen pig liver (Table 7)
[10] = liver, single oral dose of Formula I 125 mg/kg, 24 hpd, read-out: Tissue concentration, liver
[11] = lung, single intravenous bolus of Formula I 25 mg/kg, 2 hpd, read-out: Tissue concentration, lung
[12] = lung, single intravenous bolus of Formula I 25 mg/kg, 12 hpd, read-out: Tissue concentration, lung
[13] = lung, single oral dose of Formula I 125 mg/kg, 3 hpd, read-out: Tissue concentration, lung
[14] = lung, single oral dose of Formula I 125 mg/kg, 12 hpd, read-out: Tissue concentration, lung
[15] = spleen, single intravenous bolus of Formula I 25 mg/kg, 2 hpd, read-out: Tissue concentration, spleen
[16] = spleen, single intravenous bolus of Formula I 25 mg/kg, 12 hpd, read-out: Tissue concentration, spleen
[17] = spleen, single oral dose of Formula I 125 mg/kg, 3 hpd, read-out: Tissue concentration, spleen
[18] = brain, single intravenous bolus of Formula I 25 mg/kg, 2 hpd
[19] = brain, single intravenous bolus of Formula I 25 mg/kg, 12 hpd
[20] = brain, single oral dose of Formula I 125 mg/kg, 3 hpd
[21] = brain, single oral dose of Formula I 125 mg/kg, 12 hpd
[22] = brain, single oral dose of Formula I 125 mg/kg, 24 hpd
[23] = heart, single intravenous bolus of Formula I 25 mg/kg, 12 hpd
[24] = heart, single oral dose of Formula I 125 mg/kg, 3 hpd
[25] = heart, single oral dose of Formula I 125 mg/kg, 24 hpd
[26] = kidney, single intravenous bolus of Formula I 25 mg/kg, 2 hpd
[27] = kidney, single oral dose of Formula I 125 mg/kg, 3 hpd
[28] = liver, single oral dose of Formula I 125 mg/kg, 3 hpd
[29] = liver, single oral dose of Formula I 125 mg/kg, 24 hpd
[30] = spleen, single oral dose of Formula I 125 mg/kg, 3 hpd

Exposure in the lung and spleen, fold lower than liver and kidneys: about 10 fold | concentration at 2 h (brain, single intravenous bolus of Formula I 25 mg/kg, 2 hpd, read-out: Tissue concentration, brain): 4.9 ± 9.8 ng/g | concentration at 3 h (brain, single oral dose of Formula I 125 mg/kg, 3 hpd, read-out: Tissue concentration, brain): 27 ± 23.4 ng/g | concentration at 2 h (heart, single intravenous bolus of Formula I 25 mg/kg, 2 hpd, read-out: Tissue concentration, heart): 292 ± 139 ng/g | concentration at 12 h (heart, single intravenous bolus of Formula I 25 mg/kg, 12 hpd, read-out: Tissue concentration, heart): 7.85 ± 9.5 ng/g | concentration at 3 h (heart, single oral dose of Formula I 125 mg/kg, 3 hpd, read-out: Tissue concentration, heart): 780 ± 375 ng/g | concentration at 12 h (heart, single oral dose of Formula I 125 mg/kg, 12 hpd, read-out: Tissue concentration, heart): 3.33 ± 6.65 ng/g | concentration at 2 h (kidney, single intravenous bolus of Formula I 25 mg/kg, 2 hpd, read-out: Tissue concentration, kidney): 6920 ± 3290 ng/g | concentration at 12 h [1]: 39.3 ± 32.1 ng/g | concentration at 3 h [2]: 10300 ± 2300 ng/g | concentration at 12 h [3]: 180 ± 172 ng/g | concentration at 24 h [4]: 30 ± 12.8 ng/g | concentration at 2 h [5]: 694 ± 385 ng/g | concentration at 12 h [6]: 17.9 ± 16.4 ng/g | concentration at 3 h (liver, single oral dose of Formula I 125 mg/kg, 3 hpd, read-out: Tissue concentration in Göttingen pig liver (Table 7)): 29200 ± 12200 nM | concentration at 3 h (liver, single oral dose of Formula I 125 mg/kg, 3 hpd, read-out: Tissue concentration, liver): 12400 ± 5150 ng/g | concentration at 12 h [7]: 475 ± 727 nM | concentration at 12 h [8]: 202 ± 309 ng/g | concentration at 24 h [9]: 107 ± 60.6 nM | concentration at 24 h [10]: 45.6 ± 25.8 ng/g | concentration at 2 h [11]: 786 ± 134 ng/g | concentration at 12 h [12]: 31.8 ± 5.52 ng/g | concentration at 3 h [13]: 1630 ± 667 ng/g | concentration at 12 h [14]: 16.5 ± 12.8 ng/g | concentration at 24 h (lung, single oral dose of Formula I 125 mg/kg, 24 hpd, read-out: Tissue concentration, lung): 2.25 ± 4.51 ng/g | concentration at 2 h [15]: 530 ± 284 ng/g | concentration at 12 h [16]: 24.8 ± 7.34 ng/g | concentration at 3 h [17]: 1390 ± 301 ng/g | concentration at 12 h (spleen, single oral dose of Formula I 125 mg/kg, 12 hpd, read-out: Tissue concentration, spleen): 11.9 ± 9.24 ng/g | concentration at 24 h (spleen, single oral dose of Formula I 125 mg/kg, 24 hpd, read-out: Tissue concentration, spleen): 2.27 ± 4.53 ng/g | Tissue concentration, brain [18]: 4.90 ± 9.80 ng/g | Tissue concentration, brain [19]: not observable and BQL | Tissue concentration, brain [20]: 27.0 ± 23.4 ng/g | Tissue concentration, brain [21]: BQL | Tissue concentration, brain [22]: BQL | Tissue concentration, heart [23]: 7.85 ± 9.50 ng/g | Tissue concentration, heart [24]: 780 ± 375 ng/g | Tissue concentration, heart [25]: BQL | Tissue concentration, kidney [26]: 6920 ± 3290 ng/g | Tissue concentration, kidney (kidney, single intravenous bolus of Formula I 25 mg/kg, 12 hpd): 39.3 ± 32.1 ng/g | Tissue concentration, kidney [27]: 10300 ± 2300 ng/g | Tissue concentration, liver [28]: 12400 ± 5150 ng/g | Tissue concentration, liver [29]: 45.6 ± 25.8 ng/g | Tissue concentration, lung (lung, single oral dose of Formula I 125 mg/kg, 3 hpd): 1630 ± 667 ng/g | Tissue concentration, spleen [30]: 1390 ± 301 ng/g
SMILES: C[C@H](NP(=O)(O)OC[C@H]1O[C@@H](n2ccc(=O)[nH]c2=S)C(C)(O)C1O)C(=O)O (stereo in doubt) [Formula II]

Exposure in the lung and spleen, fold lower than liver and kidneys: about 10 fold | concentration at 24 h (125 mg/kg, liver and kidney, 24 hpd after oral dosing with Formula I, read-out: Concentration measurable in the liver and kidney): ~500 nM | concentration at 12 h [1]: 276 ± 78.1 ng/g | concentration at 3 h [2]: 14100 ± 5050 ng/g | concentration at 12 h [3]: 824 ± 432 ng/g | concentration at 24 h [4]: 85.5 ± 18.1 ng/g | concentration at 2 h [5]: 13100 ± 3070 ng/g | concentration at 12 h [6]: 62.7 ± 77.7 ng/g | concentration at 12 h [7]: 1640 ± 924 nM | concentration at 12 h [8]: 582 ± 328 ng/g | concentration at 24 h [9]: 537 ± 229 nM | concentration at 24 h [10]: 190 ± 81 ng/g | concentration at 2 h [11]: 2040 ± 883 ng/g | concentration at 12 h [12]: 357 ± 207 ng/g | concentration at 3 h [13]: 303 ± 94.4 ng/g | concentration at 12 h [14]: 55.2 ± 64.6 ng/g | concentration at 2 h [15]: 240 ± 28.3 ng/g | concentration at 12 h [16]: 58.9 ± 14.7 ng/g | concentration at 3 h [17]: 118 ± 10.8 ng/g | Tissue concentration, brain [18]: BQL | Tissue concentration, brain [19]: BQL | Tissue concentration, brain [20]: BQL | Tissue concentration, brain [21]: BQL | Tissue concentration, brain [22]: BQL | Tissue concentration, heart (heart, single intravenous bolus of Formula I 25 mg/kg, 2 hpd): 89.9 ± 65.5 ng/g | Tissue concentration, heart [23]: BQL | Tissue concentration, heart [24]: 34.0 ± 39.9 ng/g | Tissue concentration, heart (heart, single oral dose of Formula I 125 mg/kg, 12 hpd): BQL | Tissue concentration, heart [25]: BQL | Tissue concentration, kidney [26]: above the limit of quantitation and AQL | Tissue concentration, kidney [27]: 14100 ± 5050^ ng/g | Tissue concentration, kidney (kidney, single oral dose of Formula I 125 mg/kg, 24 hpd): 85.5 ± 18.1 ng/g | Tissue concentration, liver (liver, single intravenous bolus of Formula I 25 mg/kg, 2 hpd): 13100 ± 3070 ng/g | Tissue concentration in Göttingen pig liver (Table 7) [28]: AQL | Tissue concentration, liver [28]: above the limit of quantitation and AQL | Tissue concentration, liver [29]: 190 ± 81.0 ng/g | Tissue concentration, lung (lung, single intravenous bolus of Formula I 25 mg/kg, 12 hpd): 357 ± 207 ng/g | Tissue concentration, lung (lung, single oral dose of Formula I 125 mg/kg, 24 hpd): BQL | Tissue concentration, spleen (spleen, single intravenous bolus of Formula I 25 mg/kg, 12 hpd): 58.9 ± 14.7 ng/g | Tissue concentration, spleen [30]: 118 ± 10.8 ng/g | Tissue concentration, spleen (spleen, single oral dose of Formula I 125 mg/kg, 12 hpd): BQL | Tissue concentration, spleen (spleen, single oral dose of Formula I 125 mg/kg, 24 hpd): BQL
SMILES: CC1(O)[C@@H](O)[C@@H](COP(=O)(O)O)O[C@H]1n1ccc(=O)[nH]c1=S (stereo partly drawn) [Formula III]
